Results published in patent US20160355530A1, “HEPATITIS C INHIBITORS AND USES THEREOF” (AbbVie Inc., priority 2010, published 2016).
Where two headings read alike, the source gives them in different places.

What was measured:
[1] = tested on: HCV 1a-H77 subgenomic replicon; assay: microbe, parasite or virus in culture; type: cell-based, HCV genotype 1a; details: Hepatitis C virus, stable replicon
[2] = tested on: HCV NS5B polymerase 1a-H77-C316Y; assay: biochemical; parameters: species or system HCV genotype 1a; details: ratio of enzyme IC50s, 1a H77-C316Y / 1a H77
Summary of the method: (§1)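 E. coli-expressed NS5B (residues 1-570, His-tagged) transcribed a 2.1 kb HCV 1b negative-strand 3′-end RNA template (5 nM) with 20 μM CTP, 20 μM ATP and 0.284 μM [3H]UTP for 3 h at 30° C. Spermine-precipitated RNA was filter-captured and counted by scintillation; IC50 from nonlinear regression.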

[3] = biological target: T1, HCV NS5B polymerase 1a-H77-C316Y (Hepatitis C virus genotype 1a, UniProt P27958, C2736Y); assay: biochemical; parameters: species or system HCV genotype 1a
T1 construct: six-histidine tag; made in house; host or cells: E. coli
Summary of the method: as §1

[4] = biological target: T2, HCV NS5B polymerase 1a-H77 (Hepatitis C virus genotype 1a, UniProt P27958); assay: biochemical; parameters: species or system HCV genotype 1a; details: enzyme, strain 1a H77; read-out: HCV Polymerase Strain 1a H77 IC50
T2 construct: six-histidine tag; made in house; host or cells: E. coli
Summary of the method: as §1

[5] = tested on: chimeric replicon with genotype 4a NS5B; assay: microbe, parasite or virus in culture; type: cell-based, HCV genotype 4a; details: Hepatitis C virus, read-out: 4a chimera 5% FBS EC50
[6] = tested on: chimeric replicon with genotype 3a NS5B; assay: microbe, parasite or virus in culture; type: cell-based, HCV genotype 3a; details: Hepatitis C virus, read-out: 3a chimera 5% FBS EC50
[7] = biological target: T3, HCV NS5B polymerase 1b BK strain (Hepatitis C virus genotype 1b, UniProt P26663); assay: HCV NS5B polymerase enzymatic inhibition assay, strain 1b BK; type: biochemical; details: enzyme, strain 1b BK; read-out: HCV Polymerase Strain 1b BK IC50
T3 construct: six-histidine tag; made in house; host or cells: E. coli
Summary of the method: as §1

[8] = tested on: HCV 1a-H77-C316Y transient subgenomic replicon in Huh-7 derived cell line; assay: microbe, parasite or virus in culture; type: cell-based, HCV genotype 1a
Summary of the method: (§2)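 Transient format: T7-transcribed replicon RNA lacking Neo, electroporated into Huh-7-derived cells (5×10^3/well), input RNA checked by luciferase at 4 h. Three-fold compound dilution series, 0.5% DMSO, 4 days at 37° C; EC50 from luciferase signal in lysed cells.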

[9] = tested on: HCV 1a-H77 transient subgenomic replicon in Huh-7 derived cell line; assay: microbe, parasite or virus in culture; type: cell-based, HCV genotype 1a; details: Hepatitis C virus, Huh-7; transient replicon, 5% FBS; read-out: Transient Replicon 1a H77 5% FBS EC50
Summary of the method: as §2

[10] = biological target: T4, HCV NS5B polymerase 1b Rice (Hepatitis C virus genotype 1b, UniProt Q9WMX2); assay: HCV NS5B polymerase enzymatic inhibition assay, strain 1b Rice; type: biochemical, HCV genotype 1b; details: enzyme
T4 construct: six-histidine tag; made in house; host or cells: E. coli
Method: Purified HCV NS5B polymerase enzymes were used for polymerase inhibition assays. All recombinant HCV polymerases contained the first 570 amino acids of the 591 amino acid native protein sequence and a six-histidine tag at the N-terminus or C-terminus to facilitate purification by affinity chromatography. The DNA nucleotide sequence for the HCV polymerase 1b BK strain was codon optimized for expression in E. coli. A synthetic gene was prepared from a series of overlapping oligonucleotides that were filled in using a DNA polymerase and amplified by PCR. The patient isolate HCV polymerases were cloned by RT-PCR methods using HCV RNA extracted from the serum of infected subjects obtained from ProMedDx and BioCollections (genotypes 2a, 2b, 3a, and 4a). Laboratory strains were cloned from plasmid DNA (1a-H77 or 1a-H77-C316Y) or from existing replicon cells (1b Rice). In all cases the amplified DNA was cloned into a protein expression vector (typically a pET vector from Novagen) and then multiple clones were sequenced to identify one whose NS5B sequence agreed with the population sequence. This sequence-confirmed clone was then transfected into E. coli for protein expression and purification. E. coli cultures were grown to a maximum optical density (OD) of 2-3 and then induced with 0.4 mM isopropyl beta-D-thiogalactopyranoside (IPTG) and grown for 20 hours at 20° C.
Proteins were purified using nickel affinity chromatography, and additional column steps were added including, ion exchange, size exclusion, hydrophobic ion, and poly-U affinity chromatography, as needed, depending on the sample being purified. The template RNA used in the polymerase enzymatic assay was a 2.1 kb construct that corresponds to the 3′-end of an HCV genotype 1b negative strand RNA.
The reaction was initiated by the addition of 20 μM CTP, 20 μM ATP, 0.284 μM (0.5 μCi) of 5,6-[^3H] UTP, 5 nM template RNA and 0.1 U/μL RNase inhibitor (RNasin, Promega), and allowed to proceed for three hours at 30° C. The final reaction volume was 50 μL. The reaction was terminated by the addition of 50 uL of 4 mM spermine in 10 mM Tris-HCl, pH 7.5, 1 mM EDTA. The quenched reaction was allowed to incubate for at least 15 minutes at room temperature, and then the precipitated RNA was captured by filtration through a glass fiber filter (GF/B, Millipore) in a 96 well format. The filter plate was washed five times with 200 μL of 2 mM spermine, 10 mM Tris-HCl, pH 8.0, 1 mM EDTA, and two times with ethanol. After drying thoroughly in air, 30 μL of Microscint-20 scintillation cocktail (Perkin Elmer) was added to each well, and the retained cpm were determined by scintillation counting. IC50 values were determined by nonlinear regression.
% Inhibition=100*[[I]/([I]+[IC50])] equation 1
V=kcat[S]/2(Km+[S])*(sqrt((IC50+I−E)̂2+(4*IC50*E))−(IC50+I−E)) equation 2

[11] = tested on: HCV 1b-Con1 subgenomic replicon; assay: Stable replicon cell culture assay (luciferase), 1b-Con1; 5% FBS, optionally 40% human plasma; type: cell-based, HCV genotype 1b; details: Hepatitis C virus
[12] = tested on: HCV 1a-H77 C316Y mutant subgenomic replicon; assay: Stable replicon cell culture assay (luciferase), 1a-H77-C316Y mutant; type: cell-based, HCV genotype 1a; details: for EC50: Hepatitis C virus, read-out: Stable Replicon 1a H77-C316Y 5% FBS EC50; for Stable Replicon Fold Resistance C316Y/1a: ratio of stable replicon EC50s, C316Y / 1a H77
[13] = tested on: chimeric replicon with genotype 2b NS5B; assay: microbe, parasite or virus in culture; type: cell-based, HCV genotype 2b; details: Hepatitis C virus, read-out: 2b chimera 5% FBS EC50
[14] = tested on: chimeric replicon with 2a-J6CF-derived NS5B; assay: microbe, parasite or virus in culture; type: cell-based, HCV genotype 2a; details: Hepatitis C virus, read-out: 2a chimera 5% FBS EC50
[15] = 5% FBS, absence of human plasma, read-out: Stable Replicon 1a H77 5% FBS EC50
[16] = strain 1a H77, 5% FBS + 40% human plasma, read-out: 1a H77 5% FBS + 40% Human Plasma EC50
[17] = strain 1a H77, 5% FBS, no human plasma, read-out: 1a H77 5% FBS EC50
[18] = strain 1a H77, 5% FBS, read-out: 1a H77 5% FBS EC50
[19] = strain 1b Con1, 5% FBS + 40% human plasma, read-out: 1b Con1 5% FBS + 40% Human Plasma EC50
[20] = strain 1b Con1, 5% FBS, no human plasma, read-out: 1b Con1 5% FBS EC50
[21] = strain 1b Con1, 5% FBS, read-out: 1b Con1 5% FBS EC50

T3 sequence (P26663 2420-2989): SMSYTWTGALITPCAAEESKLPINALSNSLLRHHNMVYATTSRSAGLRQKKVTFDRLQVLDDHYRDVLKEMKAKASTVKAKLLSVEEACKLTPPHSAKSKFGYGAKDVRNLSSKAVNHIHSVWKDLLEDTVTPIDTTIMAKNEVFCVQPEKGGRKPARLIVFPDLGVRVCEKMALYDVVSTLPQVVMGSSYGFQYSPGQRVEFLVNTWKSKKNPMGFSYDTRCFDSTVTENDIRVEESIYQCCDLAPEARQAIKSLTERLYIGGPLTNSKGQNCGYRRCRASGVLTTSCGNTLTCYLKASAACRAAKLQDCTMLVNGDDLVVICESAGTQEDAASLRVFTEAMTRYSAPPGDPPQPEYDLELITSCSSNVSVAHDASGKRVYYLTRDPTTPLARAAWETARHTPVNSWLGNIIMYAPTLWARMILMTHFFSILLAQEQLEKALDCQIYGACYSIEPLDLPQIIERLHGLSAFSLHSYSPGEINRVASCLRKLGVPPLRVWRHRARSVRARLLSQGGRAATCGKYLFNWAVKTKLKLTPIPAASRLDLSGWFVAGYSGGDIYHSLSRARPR
T2 sequence (P27958 2421-2990): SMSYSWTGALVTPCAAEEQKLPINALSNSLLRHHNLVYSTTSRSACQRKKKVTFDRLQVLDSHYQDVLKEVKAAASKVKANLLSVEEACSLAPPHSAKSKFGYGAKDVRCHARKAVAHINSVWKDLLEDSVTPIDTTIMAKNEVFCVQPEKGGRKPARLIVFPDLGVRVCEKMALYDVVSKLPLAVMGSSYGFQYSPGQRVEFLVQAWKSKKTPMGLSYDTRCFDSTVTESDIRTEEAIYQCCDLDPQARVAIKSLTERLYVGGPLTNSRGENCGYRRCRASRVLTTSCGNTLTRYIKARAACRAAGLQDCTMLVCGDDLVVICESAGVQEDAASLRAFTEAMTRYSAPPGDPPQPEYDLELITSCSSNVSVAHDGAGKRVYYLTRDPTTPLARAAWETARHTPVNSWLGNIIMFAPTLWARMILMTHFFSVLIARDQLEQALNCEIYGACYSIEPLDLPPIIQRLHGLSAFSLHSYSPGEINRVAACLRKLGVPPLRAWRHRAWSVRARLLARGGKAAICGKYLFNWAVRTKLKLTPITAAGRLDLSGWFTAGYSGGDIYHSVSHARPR
T1 sequence (P27958 2421-2990 C2736Y): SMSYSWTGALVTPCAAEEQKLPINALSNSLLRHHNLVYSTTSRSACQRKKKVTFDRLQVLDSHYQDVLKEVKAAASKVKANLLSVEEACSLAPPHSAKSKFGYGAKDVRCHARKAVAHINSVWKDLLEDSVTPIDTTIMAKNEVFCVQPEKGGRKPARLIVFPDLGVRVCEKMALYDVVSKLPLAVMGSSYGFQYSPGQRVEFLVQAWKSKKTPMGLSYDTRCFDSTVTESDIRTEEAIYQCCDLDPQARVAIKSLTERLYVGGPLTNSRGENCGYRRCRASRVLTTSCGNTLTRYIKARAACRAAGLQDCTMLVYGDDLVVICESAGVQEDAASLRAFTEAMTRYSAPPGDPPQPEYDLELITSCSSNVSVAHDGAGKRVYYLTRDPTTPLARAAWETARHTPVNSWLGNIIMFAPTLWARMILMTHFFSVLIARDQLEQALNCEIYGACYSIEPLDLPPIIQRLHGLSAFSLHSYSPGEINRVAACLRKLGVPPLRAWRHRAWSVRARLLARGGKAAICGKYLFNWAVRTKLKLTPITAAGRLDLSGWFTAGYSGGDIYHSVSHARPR

With `CC(C)CCN(c1cc2oc(-c3ccc(Nc4ccccc4)cc3)c(-c3ncc[nH]3)c2cc1C1CC1)S(C)(=O)=O` [Example 18, N-[2-(4-anilinophenyl)-5-cyclopropyl-3-(1H-imidazol-2-yl)-1-benzofuran-6-yl]-N-(3-methylbutyl)methanesulfonamide] the EC50 [1, 15] was 5.4 nM, the EC50 [1, 16] was 234 nM and the EC50 [1, 17] was 5.4 nM. For the same compound, the EC50 [1, 18] was 5.4 nM, the “C316Y/1a Fold Resistance” value [2] was 4 fold and the IC50 [3] was 101 nM. The IC50 [4] was 25.8 nM, the EC50 [5] was 9.4 nM and the EC50 [6] was 12.3 nM. The IC50 [7] was 85.6 nM, the EC50 ([8]; Hepatitis C virus, Huh-7, read-out: Transient Replicon 1a H77-C316Y 5% FBS EC50) was 0.3 nM and the “Transient Replicon Fold Resistance C316Y/1a” value ([8]; ratio of transient replicon EC50s, C316Y / 1a H77) was 0.4 fold. The EC50 [9] was 0.7 nM, the IC50 [10] was 30.4 nM and the EC50 [11, 19] was 602 nM. For the same compound, the EC50 [11, 20] was 9.5 nM, the EC50 [11, 21] was 9.5 nM and the EC50 [12] was 3.8 nM. The “Stable Replicon Fold Resistance C316Y/1a” value [12] was 0.711 fold and the EC50 [13] was 13 nM.

`COc1ccc(-c2nn3ccc(-c4cc(C(=O)NC5(c6ccccc6)CC5)ccc4C)cc3c2C2=NOCCN2)cc1` [Example 19, 3-[3-(5,6-dihydro-4H-1,2,4-oxadiazin-3-yl)-2-(4-methoxyphenyl)pyrazolo[1,5-a]pyridin-5-yl]-4-methyl-N-(1-phenylcyclopropyl)benzamide] gave an EC50 [1, 15] of 33.2 nM, an EC50 [1, 16] of 444 nM and an EC50 [1, 17] of 33.2 nM. The EC50 [1, 18] was 33.2 nM, the “C316Y/1a Fold Resistance” value [2] was 115 fold and the IC50 [3] was 457 nM. It also gave an IC50 [4] of 4 nM, an EC50 [5] of 20.2 nM and an IC50 [7] of 150 nM. It also gave an EC50 [14] of 140 nM, an IC50 [10] of 7.2 nM and an EC50 [11, 19] of 86.8 nM. For the same compound, the EC50 [11, 20] was 6.7 nM, the EC50 [11, 21] was 6.7 nM and the EC50 [12] was 1320 nM. For the same compound, the “Stable Replicon Fold Resistance C316Y/1a” value [12] was 41.0 fold.
